According to US9113629B2, “4-amino-6-(4-substituted-phenyl)-picolinates and 6-amino-2-(4-substituted-phenyl)-pyrimidine-4-carboxylates and their use as herbicides” (DOW AGROSCIENCES LLC, priority 2013, dated 2015):

tested on: not given; experiment: not given; settings: not given

Q: With C#Cc1ccc(-c2nc(C(=O)OC)c(Cl)c(N)c2F)cc1F [Compound 133, methyl 4-amino-3-chloro-6-(4-ethynyl-3-fluorophenyl)-5-fluoropicolinate] as the molecule, how does the melting point read?
A: 141 to 143 °C

tested on: Key Broadleaf Weed and Crop Species; experiment: Post-emergent Test II herbicidal activity (Table 5); assay type: in vivo; settings: post-emergence, 336 h; ABUTH: velvetleaf (Abutilon theophrasti); application rate 70 g ai/ha; 14 days after application; read-out: Visual Growth Reduction (%) 14 Days After Application, ABUTH
How it was run: (§1)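 Injury was rated visually 14 d after treatment on a 0–100% scale against untreated controls. Test compounds, formulated with crop oil concentrate and surfactant and serially diluted down to 1/16× of the top rate, were applied by track sprayer at 187 L/ha onto first- to second-true-leaf seedlings.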

Q: With C#Cc1ccc(-c2nc(C(=O)OC)c(Cl)c(N)c2F)cc1F [Compound 133, methyl 4-amino-3-chloro-6-(4-ethynyl-3-fluorophenyl)-5-fluoropicolinate] as the molecule, how does the pest or weed control at 70 g/ha read?
A: 85 to 94%

same assay, conditions: post-emergence, 336 h; ABUTH: velvetleaf (Abutilon theophrasti); application rate 140 g ai/ha; 14 days after application; read-out: Visual Growth Reduction (%) 14 Days After Application, ABUTH

Q: With C#Cc1ccc(-c2nc(C(=O)OC)c(Cl)c(N)c2F)cc1F [Compound 133, methyl 4-amino-3-chloro-6-(4-ethynyl-3-fluorophenyl)-5-fluoropicolinate] as the molecule, how does the pest or weed control at 140 g/ha read?
A: 95 to 100%

same assay, conditions: post-emergence, 336 h; AMARE: redroot pigweed (Amaranthus retroflexus); application rate 70 g ai/ha; 14 days after application; read-out: Visual Growth Reduction (%) 14 Days After Application, AMARE

Q: Which pest or weed control at 70 g/ha does the source give for C#Cc1ccc(-c2nc(C(=O)OC)c(Cl)c(N)c2F)cc1F [Compound 133, methyl 4-amino-3-chloro-6-(4-ethynyl-3-fluorophenyl)-5-fluoropicolinate] here?
A: 75 to 84%

same assay, conditions: post-emergence, 336 h; AMARE: redroot pigweed (Amaranthus retroflexus); application rate 140 g ai/ha; 14 days after application; read-out: Visual Growth Reduction (%) 14 Days After Application, AMARE

Q: Which pest or weed control at 140 g/ha does the source give for C#Cc1ccc(-c2nc(C(=O)OC)c(Cl)c(N)c2F)cc1F [Compound 133, methyl 4-amino-3-chloro-6-(4-ethynyl-3-fluorophenyl)-5-fluoropicolinate] here?
A: 75 to 84%

same assay, conditions: post-emergence, 336 h; BRSNN: oilseed-rape, canola (Brassica napus); application rate 70 g ai/ha; 14 days after application; read-out: Visual Growth Reduction (%) 14 Days After Application, BRSNN

Q: With C#Cc1ccc(-c2nc(C(=O)OC)c(Cl)c(N)c2F)cc1F [Compound 133, methyl 4-amino-3-chloro-6-(4-ethynyl-3-fluorophenyl)-5-fluoropicolinate] as the molecule, how does the pest or weed control at 70 g/ha read?
A: 75 to 84%

same assay, conditions: post-emergence, 336 h; BRSNN: oilseed-rape, canola (Brassica napus); application rate 140 g ai/ha; 14 days after application; read-out: Visual Growth Reduction (%) 14 Days After Application, BRSNN

Q: With C#Cc1ccc(-c2nc(C(=O)OC)c(Cl)c(N)c2F)cc1F [Compound 133, methyl 4-amino-3-chloro-6-(4-ethynyl-3-fluorophenyl)-5-fluoropicolinate] as the molecule, how does the pest or weed control at 140 g/ha read?
A: 95 to 100%

same assay, conditions: post-emergence, 336 h; CHEAL: lambsquarters (Chenopodium album); application rate 70 g ai/ha; 14 days after application; read-out: Visual Growth Reduction (%) 14 Days After Application, CHEAL

Q: For C#Cc1ccc(-c2nc(C(=O)OC)c(Cl)c(N)c2F)cc1F [Compound 133, methyl 4-amino-3-chloro-6-(4-ethynyl-3-fluorophenyl)-5-fluoropicolinate], which pest or weed control at 70 g/ha is on record?
A: 95 to 100%

same assay, conditions: post-emergence, 336 h; CHEAL: lambsquarters (Chenopodium album); application rate 140 g ai/ha; 14 days after application; read-out: Visual Growth Reduction (%) 14 Days After Application, CHEAL

Q: With C#Cc1ccc(-c2nc(C(=O)OC)c(Cl)c(N)c2F)cc1F [Compound 133, methyl 4-amino-3-chloro-6-(4-ethynyl-3-fluorophenyl)-5-fluoropicolinate] as the molecule, how does the pest or weed control at 140 g/ha read?
A: 95 to 100%

same assay, conditions: post-emergence, 336 h; EPHHL: wild poinsettia (Euphorbia heterophylla); application rate 70 g ai/ha; 14 days after application; read-out: Visual Growth Reduction (%) 14 Days After Application, EPHHL

Q: For C#Cc1ccc(-c2nc(C(=O)OC)c(Cl)c(N)c2F)cc1F [Compound 133, methyl 4-amino-3-chloro-6-(4-ethynyl-3-fluorophenyl)-5-fluoropicolinate], which pest or weed control at 70 g/ha is on record?
A: 85 to 94%

same assay, conditions: post-emergence, 336 h; EPHHL: wild poinsettia (Euphorbia heterophylla); application rate 140 g ai/ha; 14 days after application; read-out: Visual Growth Reduction (%) 14 Days After Application, EPHHL

Q: With C#Cc1ccc(-c2nc(C(=O)OC)c(Cl)c(N)c2F)cc1F [Compound 133, methyl 4-amino-3-chloro-6-(4-ethynyl-3-fluorophenyl)-5-fluoropicolinate] as the molecule, how does the pest or weed control at 140 g/ha read?
A: 95 to 100%

same assay, conditions: post-emergence, 336 h; HELAN: sunflower (Helianthus annuus); application rate 70 g ai/ha; 14 days after application; read-out: Visual Growth Reduction (%) 14 Days After Application, HELAN

Q: For C#Cc1ccc(-c2nc(C(=O)OC)c(Cl)c(N)c2F)cc1F [Compound 133, methyl 4-amino-3-chloro-6-(4-ethynyl-3-fluorophenyl)-5-fluoropicolinate], which pest or weed control at 70 g/ha is on record?
A: 95 to 100%

same assay, conditions: post-emergence, 336 h; HELAN: sunflower (Helianthus annuus); application rate 140 g ai/ha; 14 days after application; read-out: Visual Growth Reduction (%) 14 Days After Application, HELAN

Q: With C#Cc1ccc(-c2nc(C(=O)OC)c(Cl)c(N)c2F)cc1F [Compound 133, methyl 4-amino-3-chloro-6-(4-ethynyl-3-fluorophenyl)-5-fluoropicolinate] as the molecule, how does the pest or weed control at 140 g/ha read?
A: 95 to 100%

same assay, conditions: post-emergence, 336 h; VIOTR: wild pansy (Viola tricolor); application rate 70 g ai/ha; 14 days after application; read-out: Visual Growth Reduction (%) 14 Days After Application, VIOTR

Q: For C#Cc1ccc(-c2nc(C(=O)OC)c(Cl)c(N)c2F)cc1F [Compound 133, methyl 4-amino-3-chloro-6-(4-ethynyl-3-fluorophenyl)-5-fluoropicolinate], which pest or weed control at 70 g/ha is on record?
A: 0 to 29%

same assay, conditions: post-emergence, 336 h; VIOTR: wild pansy (Viola tricolor); application rate 140 g ai/ha; 14 days after application; read-out: Visual Growth Reduction (%) 14 Days After Application, VIOTR

Q: For C#Cc1ccc(-c2nc(C(=O)OC)c(Cl)c(N)c2F)cc1F [Compound 133, methyl 4-amino-3-chloro-6-(4-ethynyl-3-fluorophenyl)-5-fluoropicolinate], which pest or weed control at 140 g/ha is on record?
A: 30 to 44%

tested on: Key Grass and Sedge Weeds as well as Grass Crops; experiment: Post-emergent Test II herbicidal activity (Table 6); assay type: in vivo; settings: post-emergence, 336 h, CYPES: yellow nutsedge (Cyperus esculentus), 70 g ai/ha, read-out: Visual Growth Reduction (%) 14 Days After Application, CYPES
How it was run: as §1

Q: With C#Cc1ccc(-c2nc(C(=O)OC)c(Cl)c(N)c2F)cc1F [Compound 133, methyl 4-amino-3-chloro-6-(4-ethynyl-3-fluorophenyl)-5-fluoropicolinate] as the molecule, how does the pest or weed control at 70 g/ha read?
A: 30 to 44%

same assay, conditions: post-emergence, 336 h, CYPES: yellow nutsedge (Cyperus esculentus), 140 g ai/ha, read-out: Visual Growth Reduction (%) 14 Days After Application, CYPES

Q: For C#Cc1ccc(-c2nc(C(=O)OC)c(Cl)c(N)c2F)cc1F [Compound 133, methyl 4-amino-3-chloro-6-(4-ethynyl-3-fluorophenyl)-5-fluoropicolinate], which pest or weed control at 140 g/ha is on record?
A: 45 to 59%

same assay, conditions: post-emergence, 336 h, DIGSA: crabgrass (Digitaria sanguinalis), 70 g ai/ha, read-out: Visual Growth Reduction (%) 14 Days After Application, DIGSA

Q: With C#Cc1ccc(-c2nc(C(=O)OC)c(Cl)c(N)c2F)cc1F [Compound 133, methyl 4-amino-3-chloro-6-(4-ethynyl-3-fluorophenyl)-5-fluoropicolinate] as the molecule, how does the pest or weed control at 70 g/ha read?
A: 0 to 29%

same assay, conditions: post-emergence, 336 h, DIGSA: crabgrass (Digitaria sanguinalis), 140 g ai/ha, read-out: Visual Growth Reduction (%) 14 Days After Application, DIGSA

Q: Which pest or weed control at 140 g/ha does the source give for C#Cc1ccc(-c2nc(C(=O)OC)c(Cl)c(N)c2F)cc1F [Compound 133, methyl 4-amino-3-chloro-6-(4-ethynyl-3-fluorophenyl)-5-fluoropicolinate] here?
A: 60 to 74%

same assay, conditions: post-emergence, 336 h, ECHCG: barnyardgrass (Echinochloa crus-galli), 70 g ai/ha, read-out: Visual Growth Reduction (%) 14 Days After Application, ECHCG

Q: Which pest or weed control at 70 g/ha does the source give for C#Cc1ccc(-c2nc(C(=O)OC)c(Cl)c(N)c2F)cc1F [Compound 133, methyl 4-amino-3-chloro-6-(4-ethynyl-3-fluorophenyl)-5-fluoropicolinate] here?
A: 0 to 29%

same assay, conditions: post-emergence, 336 h, ECHCG: barnyardgrass (Echinochloa crus-galli), 140 g ai/ha, read-out: Visual Growth Reduction (%) 14 Days After Application, ECHCG

Q: For C#Cc1ccc(-c2nc(C(=O)OC)c(Cl)c(N)c2F)cc1F [Compound 133, methyl 4-amino-3-chloro-6-(4-ethynyl-3-fluorophenyl)-5-fluoropicolinate], which pest or weed control at 140 g/ha is on record?
A: 60 to 74%

same assay, conditions: post-emergence, 336 h, ORYSA: rice (Oryza sativa), crop, 70 g ai/ha, read-out: Visual Growth Reduction (%) 14 Days After Application, ORYSA

Q: For C#Cc1ccc(-c2nc(C(=O)OC)c(Cl)c(N)c2F)cc1F [Compound 133, methyl 4-amino-3-chloro-6-(4-ethynyl-3-fluorophenyl)-5-fluoropicolinate], which pest or weed control at 70 g/ha is on record?
A: 0 to 29%

same assay, conditions: post-emergence, 336 h, ORYSA: rice (Oryza sativa), crop, 140 g ai/ha, read-out: Visual Growth Reduction (%) 14 Days After Application, ORYSA

Q: With C#Cc1ccc(-c2nc(C(=O)OC)c(Cl)c(N)c2F)cc1F [Compound 133, methyl 4-amino-3-chloro-6-(4-ethynyl-3-fluorophenyl)-5-fluoropicolinate] as the molecule, how does the pest or weed control at 140 g/ha read?
A: 0 to 29%

same assay, conditions: post-emergence, 336 h, SETFA: giant foxtail (Setaria faberi), 70 g ai/ha, read-out: Visual Growth Reduction (%) 14 Days After Application, SETFA

Q: Which pest or weed control at 70 g/ha does the source give for C#Cc1ccc(-c2nc(C(=O)OC)c(Cl)c(N)c2F)cc1F [Compound 133, methyl 4-amino-3-chloro-6-(4-ethynyl-3-fluorophenyl)-5-fluoropicolinate] here?
A: 45 to 59%

same assay, conditions: post-emergence, 336 h, SETFA: giant foxtail (Setaria faberi), 140 g ai/ha, read-out: Visual Growth Reduction (%) 14 Days After Application, SETFA

Q: With C#Cc1ccc(-c2nc(C(=O)OC)c(Cl)c(N)c2F)cc1F [Compound 133, methyl 4-amino-3-chloro-6-(4-ethynyl-3-fluorophenyl)-5-fluoropicolinate] as the molecule, how does the pest or weed control at 140 g/ha read?
A: 75 to 84%

same assay, conditions: post-emergence, 336 h, SORVU: grain sorghum (Sorghum vulgare), 70 g ai/ha, read-out: Visual Growth Reduction (%) 14 Days After Application, SORVU

Q: Which pest or weed control at 70 g/ha does the source give for C#Cc1ccc(-c2nc(C(=O)OC)c(Cl)c(N)c2F)cc1F [Compound 133, methyl 4-amino-3-chloro-6-(4-ethynyl-3-fluorophenyl)-5-fluoropicolinate] here?
A: 60 to 74%

same assay, conditions: post-emergence, 336 h, SORVU: grain sorghum (Sorghum vulgare), 140 g ai/ha, read-out: Visual Growth Reduction (%) 14 Days After Application, SORVU

Q: With C#Cc1ccc(-c2nc(C(=O)OC)c(Cl)c(N)c2F)cc1F [Compound 133, methyl 4-amino-3-chloro-6-(4-ethynyl-3-fluorophenyl)-5-fluoropicolinate] as the molecule, how does the pest or weed control at 140 g/ha read?
A: 75 to 84%

same assay, conditions: post-emergence, 336 h, TRZSS (wheat, Triticum aestivum), crop, 70 g ai/ha, read-out: Visual Growth Reduction (%) 14 Days After Application, TRZSS

Q: Which pest or weed control at 70 g/ha does the source give for C#Cc1ccc(-c2nc(C(=O)OC)c(Cl)c(N)c2F)cc1F [Compound 133, methyl 4-amino-3-chloro-6-(4-ethynyl-3-fluorophenyl)-5-fluoropicolinate] here?
A: 30 to 44%

same assay, conditions: post-emergence, 336 h, TRZSS (wheat, Triticum aestivum), crop, 140 g ai/ha, read-out: Visual Growth Reduction (%) 14 Days After Application, TRZSS

Q: For C#Cc1ccc(-c2nc(C(=O)OC)c(Cl)c(N)c2F)cc1F [Compound 133, methyl 4-amino-3-chloro-6-(4-ethynyl-3-fluorophenyl)-5-fluoropicolinate], which pest or weed control at 140 g/ha is on record?
A: 30 to 44%

same assay, conditions: post-emergence, 336 h, ZEAMX: maize, corn (Zea mays), crop, 70 g ai/ha, read-out: Visual Growth Reduction (%) 14 Days After Application, ZEAMX

Q: For C#Cc1ccc(-c2nc(C(=O)OC)c(Cl)c(N)c2F)cc1F [Compound 133, methyl 4-amino-3-chloro-6-(4-ethynyl-3-fluorophenyl)-5-fluoropicolinate], which pest or weed control at 70 g/ha is on record?
A: 95 to 100%

same assay, conditions: post-emergence, 336 h, ZEAMX: maize, corn (Zea mays), crop, 140 g ai/ha, read-out: Visual Growth Reduction (%) 14 Days After Application, ZEAMX

Q: For C#Cc1ccc(-c2nc(C(=O)OC)c(Cl)c(N)c2F)cc1F [Compound 133, methyl 4-amino-3-chloro-6-(4-ethynyl-3-fluorophenyl)-5-fluoropicolinate], which pest or weed control at 140 g/ha is on record?
A: 95 to 100%
